# Data as given in PMC10661964 (Current Drug Metabolism, 2023).
# Where two headings read alike, the source gives them in different places.
# What was measured:
# [1] = Mass balance and metabolite profiling in excreta after i.v. [14C]-nifurtimox in bile duct-cannulated (BDC) rats; format: in vivo, male Wistar rats; details: for administered dose secreted directly into the gut: gastrointestinal tract + feces
# Procedure: (§1) Animals were housed in suitable metabolism cages. […] Blood cells and plasma were separated by centrifugation. Plasma was stored at ≤-15°C prior to analysis. […] All biological samples were weighed immediately. […] The remaining carcass was also wet-weighed.
# CYP 2C19 [2] = assay: CYP induction (mRNA and CYP activity); format: in vitro ADME, human
# Text: (§2) The inhibition of cytochrome P450 (CYP) isoforms and a range of cellular transporters (except multidrug and toxin extrusion [MATE] proteins), as well as the induction of CYP isoforms were investigated using previously described methods.
# CYP 2C19 [3] = target: CYP 2C19 (Homo sapiens, UniProt P33261); assay: CYP inhibition with probe substrate; format: in vitro ADME; details: probe substrate mephenytoin
# Text: as §2
# [4] = humans, dogs, and rats, oral administration; cited from earlier work
# [5] = Stability study: metabolite profiles in snap-frozen plasma and urine at early timepoints after oral [14C]-nifurtimox; format: in vivo, male Wistar rats; details: for share of sample radioactivity in plasma / share of sample radioactivity in urine: oral 2.5 mg/kg, snap-frozen
# Procedure: as §1
# The combined supernatant was analyzed directly using HPLC-LSC.
# in vitro = details: rat, plasma
# [6] = rat, in vivo, 2.5 mg/kg
# Procedure: After an adaption period, the animals were prepared for the study. Bile duct cannulation was performed on selected animals the day before their use in experiments.
# In a mass balance study (n = 5) and a PK study (n = 2 per timepoint), 2.5 mg/kg b.w. […] For i.v. administration, 2.5 mg/kg b.w. […] In an additional stability study, male Wistar rats (n = 3 per timepoint) were administered 2.5 mg/kg b.w. […] The total radioactivity concentration in the dosage form was confirmed by liquid scintillation counting (LSC).
# Animals were housed in suitable metabolism cages. Blood was collected from separate rats at 0.25, 0.5, 1, 1.5, 2, 3, 5, and 8 h post-dose and stored in lithium heparinized tubes. Blood cells and plasma were separated by centrifugation. Plasma was stored at ≤-15°C prior to analysis. […] At the end of the study, the cages were rinsed with water, and samples were collected. All biological samples were weighed immediately. Feces samples were homogenized with water to obtain a uniform radioactivity distribution. All samples were stored deep-frozen at ≤-15/-70°C before further processing. During the necropsy, selected organs and tissues were collected and wet-weighed. The remaining carcass was also wet-weighed. The carcass and all tissues were homogenized and stored at room temperature prior to processing for analysis. In the stability study, blood and urine were collected at 0.25 and 0.5 h post-dose. Plasma and urine were immediately frozen in liquid nitrogen and stored at -80°C to prevent degradation. The total radioactivity in samples and tissues was determined by LSC after appropriate sample preparation.
# Aliquots of individual urine or bile samples were pooled separately for each time interval by equal volume and analyzed using HPLC-LSC. Aliquots of individual feces samples were pooled separately for each time interval, ensuring that each aliquot contained the same amount of radioactivity. The pooled samples were extracted twice with a mixture of acetonitrile/water (80:20 v/v, 2 x 0.5 mL). The resulting suspensions were centrifuged (20,000 g, 5 min), and the supernatants were then combined for each time interval, concentrated, and subjected to HPLC-LSC.
# The amount of total radioactivity in urine, feces, bile, and tissues was determined by multiplying the volume or weight of the samples by the respective total radioactivity concentration. The amount of radioactivity recovered in the excreta (AE), cage wash, and tissues was compared with the administered radioactive dose to establish the radioactive balance. Cumulative excretion was calculated as the sum of the excretion for each collection interval. Arithmetic means and coefficients of variation (CV) were calculated for these percentages. During metabolite profiling, the concentration or amount of each analyte for each sample and timepoint or interval was calculated by multiplying the total radioactivity concentration or amount excreted of each sample with the percent area of each analyte obtained after HPLC-LSC separation.
# [7] = cited from earlier work
# [8] = Procedure: One aliquot of a pooled urine sample taken at 0.25 h post-dose was analyzed immediately using HPLC-LSC. Further aliquots were analyzed after storage for 24 h at room temperature. […] After incubation for 22.5 h at 37°C with shaking, incubations were terminated by the addition of acetonitrile, then extracted (three times with 2 mL acetonitrile for 30 min) and centrifuged (1726 g, 3 min). The combined supernatant was analyzed directly using HPLC-LSC.
# [9] = rats, assuming oral bioavailability of 90% and fu 62.1%
# [10] = human, estimation accounting for GFR, fu (57.6%), and AUC
# [11] = within 2-3 days of oral or i.v. dosing in rats and dogs; cited from earlier work
# [12] = BDC male Wistar rats, 2.5 mg/kg i.v., up to 24 h
# [13] = 30-min preincubation, read-out: Pre- IC50 (+ NADPH)
# [14] = coincubation, read-out: Co- IC50
# [15] = total radioactivity, i.v. 2.5 mg/kg, BDC rats
# [16] = total radioactivity, i.v. 2.5 mg/kg, BDC rats, 24 h
# [17] = total radioactivity, i.v. 2.5 mg/kg, BDC rats, 24 h, listed as [^14C]-nifurtimox, 2.5 mg/kg
# [18] = total radioactivity, i.v. 2.5 mg/kg, BDC rats, 24 h, listed as [14C]-nifurtimox, 2.5 mg/kg
# [19] = oral, Medenwald et al. and seven healthy volunteers
# CYP 2C19 (Homo sapiens, UniProt P33261), sequence (P33261 whole entry): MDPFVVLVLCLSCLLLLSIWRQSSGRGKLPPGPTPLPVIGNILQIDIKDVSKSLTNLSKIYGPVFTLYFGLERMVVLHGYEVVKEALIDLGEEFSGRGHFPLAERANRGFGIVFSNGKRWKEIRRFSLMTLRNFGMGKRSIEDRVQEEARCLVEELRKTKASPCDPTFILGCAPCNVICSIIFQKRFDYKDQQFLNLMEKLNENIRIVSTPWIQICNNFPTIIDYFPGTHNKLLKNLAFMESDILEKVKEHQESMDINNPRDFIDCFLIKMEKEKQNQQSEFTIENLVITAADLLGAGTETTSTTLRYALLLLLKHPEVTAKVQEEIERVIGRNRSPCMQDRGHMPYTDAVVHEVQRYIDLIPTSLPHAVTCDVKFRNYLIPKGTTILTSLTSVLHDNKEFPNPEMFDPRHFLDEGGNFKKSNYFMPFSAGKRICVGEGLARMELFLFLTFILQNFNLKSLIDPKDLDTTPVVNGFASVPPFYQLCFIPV
smiles,measurement,setting,value
CC1CS(=O)(=O)CCN1n1cc(SCC(N)C(=O)O)ccc1=O (centres unmarked) [M-4],"component excreted in bile, i.v. dosing",[1]; [12],0.968 % of the administered dose
same,concentration up to which no induction (mRNA and CYP activity),CYP 2C19 [2],up to 80000 µg/L
same,IC50,CYP 2C19 [3]; [13],> 20 µM
same,IC50,CYP 2C19 [3]; [14],> 20 µM
same,TDI (time-dependent inhibition),CYP 2C19 [3],No
CC1CS(=O)(=O)CCN1N (centres unmarked) [M-6],concentration up to which no induction (mRNA and CYP activity),CYP 2C19 [2],up to 90000 µg/L
same,IC50,CYP 2C19 [3]; [13],> 100 µM
same,IC50,CYP 2C19 [3]; [14],> 100 µM
same,TDI (time-dependent inhibition),CYP 2C19 [3],No
"CC1CS(=O)(=O)CCN1/N=C/c1ccc([N+](=O)[O-])o1 (centres unmarked) [Nifurtimox, (E)-N-(3-methyl-1,1-dioxo-1,4-thiazinan-4-yl)-1-(5-nitrofuran-2-yl) methanimine, reference compound]",unlabeled nifurtimox excreted in urine,[4],no more than 0.5 % of the administered dose
same,share of sample radioactivity in plasma,[5]; 0.25 h post-dose,81.5 % of sample radioactivity
same,share of sample radioactivity in urine,[5]; 0.25 h post-dose,11 % of sample radioactivity
same,share of sample radioactivity in plasma,[5]; 0.5 h post-dose,72.5 % of sample radioactivity
same,share of sample radioactivity in urine,[5]; 0.5 h post-dose,4 % of sample radioactivity
same,stability in plasma,[5]; authors' conclusion from plasma profiles,appears to be stable in plasma
same,"component excreted in urine, i.v. dosing",[1]; [12],0.847 % of the administered dose
same,"component excreted in bile, i.v. dosing","[1]; BDC male Wistar rats, 2.5 mg/kg i.v., up to 24 h, 2.5 mg/kg",0.560 % of the administered dose
same,"component excreted in bile, i.v. dosing","[1]; BDC male Wistar rats, 2.5 mg/kg i.v., up to 24 h, listed as nifurtimox, 2.5 mg/kg",0.6 % of the administered dose
same,administered dose excreted in bile within 24 h,[1]; [15],17.7%
same,administered dose excreted in urine within 24 h,[1]; [15],49.6%
same,recovery of administered radioactivity at 24 h,[1]; [15],94.2%
same,dose in residues (body excluding the GIT),[1]; [16],17.6%
same,dose in the cage wash,[1]; [16],2.48%
same,administered dose secreted directly into the gut,"[1]; total radioactivity, i.v. 2.5 mg/kg, BDC rats, 24 h, 2.5 mg/kg",< 7%
same,administered dose secreted directly into the gut,[1]; [17],6.9%
same,dose excreted in feces,[1]; [18],2.45%
same,dose present in the gastrointestinal tract including contents,[1]; [18],4.45%
same,dose excreted in feces,[1]; [17],2.5%
same,dose present in the gastrointestinal tract including contents,[1]; [17],4.5%
same,fraction unbound,in vitro,0.621
same,"component excreted in feces, oral dosing",[6],No unchanged drug was detected
same,"tmax, patients who had eaten before dosing",[7]; Phase 1 food-effect PK study,4 h
same,Tmax,[7]; [19],2 to 3 h
same,average elimination half-life (t½),[7]; [19],approximately 3 hours
same,AUC greater in fed compared to fasting patients,"[7]; same nifurtimox dose, Phase 1 food-effect study",70%
same,stability in aqueous control without feces,"[8]; 8.8 µM, 37°C, 22.5 h, anaerobic, data not shown",no degradation
same,stability in rat feces,"[8]; 8.8 µM, aqueous suspension of fresh rat feces, 37°C, 22.5 h, anaerobic",unstable in rat feces
same,stability in rat urine,[8]; pooled 0.25 h post-dose urine reanalyzed after storage at room temperature for 24 h,undetectable
same,theoretical excretion based on glomerular filtration rate,[9],23 % of the dose
same,dose expected to be excreted unchanged in urine,[10],approximately 10%
same,administered radioactivity detected in urine,[11],40-50%
